Data from article PMC3970082 (FEBS Open Bio, 2014).

Biological target: T1, 5-aminopentaneamide amide hydrolase (Pseudomonas sp. TPU-A5, UniProt W6JNP2)
T1 sequence (W6JNP2 1-504): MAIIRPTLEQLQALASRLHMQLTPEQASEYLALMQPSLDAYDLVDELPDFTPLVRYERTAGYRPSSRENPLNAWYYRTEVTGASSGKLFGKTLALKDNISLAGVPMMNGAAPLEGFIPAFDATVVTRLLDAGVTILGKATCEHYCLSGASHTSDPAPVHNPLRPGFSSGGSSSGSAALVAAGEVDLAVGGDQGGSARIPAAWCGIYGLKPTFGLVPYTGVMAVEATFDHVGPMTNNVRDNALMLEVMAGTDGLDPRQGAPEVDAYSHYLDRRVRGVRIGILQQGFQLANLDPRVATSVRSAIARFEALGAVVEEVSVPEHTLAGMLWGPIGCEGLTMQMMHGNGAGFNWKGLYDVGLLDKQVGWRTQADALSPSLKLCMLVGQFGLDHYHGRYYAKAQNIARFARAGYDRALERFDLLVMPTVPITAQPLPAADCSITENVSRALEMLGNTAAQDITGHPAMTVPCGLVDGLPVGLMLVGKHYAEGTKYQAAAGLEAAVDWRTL
Experiment: ammonia liberation
Type: biochemical
Details: room temperature; purified fractions of native enzyme

CCCCC(N)=O [valeramide]
ammonia liberation (indophenol reaction): assayed at room temperature by measuring the ammonia liberated from valeramide degradation
